Measurements published in patent US8846566B2, “Composition for controlling plant diseases and method for controlling plant diseases” (Sumitomo Chemical Company, Limited, priority 2008, dated 2014).

How the values were obtained:
Format in all cases: in vivo
[1] = tested on: Botrytis cinerea, pathogen of gray mold of cucumber; assay: Test Example 1: foliage application on cucumber, gray mold control (with metconazole); conditions: 6 days after inoculation
Excerpt: A plastic pot was filled with sandy soil, and cucumber (Sagamihanjiro) was then disseminated. The cucumber was allowed to grow in a green house for 12 days. A wettable powder of the compound (1b) and a commercially available metconazole formulation (Caramba (registered trademark) produced by BASF) were respectively diluted with water and then tank-mixed so as to prepare tank-mixed liquids containing compound (1b) and metconazole in predetermined concentration. The tank-mixed liquids were subjected to foliage application such that they could be sufficiently adhered to the leaves of the aforementioned cucumber plants. After completion of the foliage application, the plants were air-dried. […] The diameter of infected area on the plants on which the agents had been sprayed was determined as the incidence of disease at the time of checking and the control value was calculated by Equation 1 based on the incidence of disease thus determined.
As a comparison, the respective wettable powders described above were diluted with water in predetermined concentration so as to prepare a compound (1b) liquid and a metconazole liquid respectively and they were subjected to similar disease control test. Besides, in order to calculate the control value, the incidence of disease was also determined in the case in which the plants had not been treated with the agent. […]

[2] = tested on: Rhizoctonia solani, pathogen of brown patch of turf; assay: Test Example 5: foliage application on turf, brown patch control (with metconazole); conditions: 10 days after inoculation
Method: Control value=100(A−B)/A “Equation 1”; Generally, the control value expected for the case where the given two kinds of active ingredient compounds are mixed and used for the treatment, the so-called control value expectation is calculated from the following Colby's calculating equation. E=X+Y−(X×Y)/100 “Equation 2”; E: Control value (%) expected for the case in which active ingredient compound A in M ppm, in M g per 100 kg of seeds or in M g per 1 hectare and active ingredient compound B in N ppm, in N g per 100 kg of seeds or in N g per 1 hectare are mixed and used for treatment (hereinbelow referred to as “control value expectation”) “Synergetic effect(%)”=(Actual control value)×100/(Control value expectation) A plastic pot was filled with sandy soil, and turf (Bent grass Penncross) was then disseminated. The turf was allowed to grow in a green house for 20 days. A wettable powder of the compound (1b) and a commercially available metconazole formulation (Caramba (registered trademark) produced by BASF) were respectively diluted with water and then tank-mixed so as to prepare tank-mixed liquids containing the compound (1b) and the metconazole in predetermined concentration. The tank-mixed liquids were subjected to foliage application such that they could be sufficiently adhered to the leaves of the aforementioned turf plants. After completion of the foliage application, the plants were air-dried. Thereafter, bran medium containing mycelium of Rhizoctonia solani, pathogen of brown patch of turf, was sprinkled over the planted area. […] The diameter of infected area on the planted area on which the agents had been sprayed was determined as the incidence of disease at the time of checking and the control value was calculated by the aforementioned Equation 1 based on the incidence of disease determined. […] Besides, in order to calculate the control value, the incidence of disease was also determined in the case in which the plants had not been treated with the agent.

[3] = tested on: Botrytis cinerea, pathogen of gray mold of cucumber; assay: Test Example 3: foliage application on cucumber, gray mold control (with ipconazole); conditions: 6 days after inoculation
Method: Control value=100(A−B)/A “Equation 1”;
Generally, the control value expected for the case where the given two kinds of active ingredient compounds are mixed and used for the treatment, the so-called control value expectation is calculated from the following Colby's calculating equation. E=X+Y−(X×Y)/100 “Equation 2”; […]
A plastic pot was filled with sandy soil, and cucumber (Sagamihanjiro) was then disseminated. […] The diameter of infected area on the plants on which the agents had been sprayed was determined as the incidence of disease at the time of checking and the control value was calculated by the aforementioned Equation 1 based on the incidence of disease thus determined.
As a comparison, the respective wettable powders described above were diluted with water in predetermined concentration so as to prepare a compound (1b) liquid and an ipconazole liquid respectively and they were subjected to similar disease control test. Besides, in order to calculate the control value, the incidence of disease was also determined in the case in which the plants has not been treated with the agent.

[4] = tested on: Rhizoctonia solani, pathogen of cucumber damping-off; assay: Test Example 4: smear treatment of cucumber seeds, damping-off control (with ipconazole); conditions: ipconazole alone 1 g/100 kg-seed, seventh day
Method: Control value=100(A−B)/A “Equation 1”; Generally, the control value expected for the case where the given two kinds of active ingredient compounds are mixed and used for the treatment, the so-called control value expectation is calculated from the following Colby's calculating equation. E=X+Y−(X×Y)/100 “Equation 2”; E: Control value (%) expected for the case in which active ingredient compound A in M ppm, in M g per 100 kg of seeds or in M g per 1 hectare and active ingredient compound B in N ppm, in N g per 100 kg of seeds or in N g per 1 hectare are mixed and used for treatment (hereinbelow referred to as “control value expectation”) “Synergetic effect(%)”=(Actual control value)×100/(Control value expectation) The results are shown in Table 3. […] They were allowed to grow in a greenhouse while irrigated and the number of non-budding seeds was checked on the seventh day after the dissemination and the incidence of disease was calculated by the aforementioned Equation 3. The control value was calculated by the aforementioned Equation 1 based on the incidence of disease. In order to calculate the control value, the incidence of disease was also determined in the case in which the plants had not been treated with the agent. […]

[5] = tested on: Rhizoctonia solani, pathogen of cucumber damping-off; assay: Test Example 2: smear treatment of cucumber seeds, damping-off control (with metconazole); conditions: metconazole alone 1 g/100 kg-seed, seventh day
Method: Control value=100(A−B)/A “Equation 1”; Generally, the control value expected for the case where the given two kinds of active ingredient compounds are mixed and used for the treatment, the so-called control value expectation is calculated from the following Colby's calculating equation. E=X+Y−(X×Y)/100 “Equation 2”; E: Control value (%) expected for the case in which active ingredient compound A in M ppm, in M g per 100 kg of seeds or in M g per 1 hectare and active ingredient compound B in N ppm, in N g per 100 kg of seeds or in N g per 1 hectare are mixed and used for treatment (hereinbelow referred to as “control value expectation”) “Synergetic effect(%)”=(Actual control value)×100/(Control value expectation) Mixed liquids containing an acetone solution of compound (1b) and an acetone solution of metconazole were prepared. These mixed liquids were used for smear treatment of cucumber (Sagamihanjiro) seeds using a rotary seed treatment machine (seed dresser, produced by Hans-Ulrich Hege GmbH) so as to obtain treated seeds. […] They were allowed to grow in a greenhouse while irrigated and the number of non-budding seeds was checked on the seventh day after the dissemination and the incidence of disease was calculated by Equation 3. The control value was calculated by the aforementioned Equation 1 based on the incidence of disease. […]

Compound CNC(=O)C(OC)c1ccccc1COc1cc(C)ccc1C (racemic) [Compound (1b)] has an Actual control value ([1]; compound (1b) alone 0.2 ppm) of 16%, an Actual control value ([2]; compound (1b) alone 600 g/ha) of 88% and an Actual control value ([3]; compound (1b) alone 0.2 ppm) of 8%.

CC(C)C1CCC(Cc2ccc(Cl)cc2)C1(O)Cn1cncn1 (stereo not drawn) [Ipconazole, ipconazole] was tested, and the Actual control value [4] was 30% and the Actual control value ([3]; ipconazole alone 3.1 ppm) was 13%.

Work on CC1(C)CCC(Cc2ccc(Cl)cc2)C1(O)Cn1cncn1 (stereo not drawn) [Metconazole, metconazole] yielded an Actual control value [5] of 39%, an Actual control value ([1]; metconazole alone 0.8 ppm) of 8% and an Actual control value ([2]; metconazole alone 9.4 g/ha) of 63%. For the same compound, the Actual control value ([2]; metconazole alone 37.5 g/ha) was 63%.
